This is an account of results in ChEMBL document CHEMBL1142870, “Antitumor potential of crown ethers: structure-activity relationships, cell cycle disturbances, and cell death studies of a series of ionophores” (J Med Chem, 2007).

Where only a bound is given, the exact number is not on record here.

One assay deals with MCF7. As to the kind of experiment: Antiproliferative activity against MCF7 cells after 72 hrs by MTT assay. Type of assay: functional, cell-based. The following applies: Homo sapiens, MCF7, 72 h. (In general: Tetrazolium assays rely on reduction of a dye to a coloured formazan, in cell work by metabolically active cells.)
Assay [1] concerns MIA PaCa-2. As to the kind of experiment: Antiproliferative activity against MiaPaCa2 cells after 72 hrs by MTT assay. Type of assay: functional, cell-based. As to conditions: Homo sapiens, MIA PaCa-2, 72 h.
The next assay deals with HeLa. Nature of the assay: Antiproliferative activity against HeLa cells after 72 hrs by MTT assay. It counts as functional, cell-based. The following applies: Homo sapiens.
In a further assay the test system is NCI-H460. Nature of the assay: Antiproliferative activity against H460 cells after 72 hrs by MTT assay. Type of assay: functional, cell-based. As to conditions: Homo sapiens, NCI-H460, 72 h.
The next assay relates to SW-620. Nature of the assay: Antiproliferative activity against SW620 cells after 72 hrs by MTT assay. Type of assay: functional, cell-based. The following applies: Homo sapiens, SW-620, 72 h.
Assay [2] deals with MIA PaCa-2. Nature of the assay: Cell cycle arrest in MiaPaCa2 cells by accumulation at SubG1 phase at 10 nM after 36 hrs. It counts as functional, Homo sapiens.
For assay [3], the system named is MIA PaCa-2. Nature of the assay: Cell cycle arrest at MiaPaCa2 cells by accumulation at S phase at 10 nM after 24 hrs. It counts as functional, Homo sapiens.
In assay [4] the test system is MIA PaCa-2. Nature of the assay: Cell cycle arrest in MiaPaCa2 cells by accumulation at G1/G0 phase at 10 nM after 36 hrs. Type of assay: functional, Homo sapiens.
Assay [5] relates to MIA PaCa-2. Nature of the assay: Cell cycle arrest in MiaPaCa2 cells by accumulation at SubG1 phase at 10 nM after 48 hrs. It counts as functional, Homo sapiens.
In assay [6] the test system is MIA PaCa-2. Nature of the assay: Cell cycle arrest at MiaPaCa2 cells by accumulation at G2/M phase at 10 nM after 48 hrs. Type of assay: functional, Homo sapiens.
Assay [7] relates to MIA PaCa-2. Nature of the assay: Cell cycle arrest at MiaPaCa2 cells by accumulation at G2/M phase at 10 nM after 36 hrs. Type of assay: functional, Homo sapiens.
Assay [8] has as its system MIA PaCa-2. Nature of the assay: Cell cycle arrest in MiaPaCa2 cells by accumulation at G1 phase at 10 nM. Type of assay: functional, cell-based. The following applies: Homo sapiens, TDE = time-dependent effect.
For assay [9], the system named is MIA PaCa-2. As to the kind of experiment: Cell cycle arrest in MiaPaCa2 cells by accumulation at G1/G0 phase at 10 nM after 48 hrs. It counts as functional, Homo sapiens.
The subject of assay [10] is MIA PaCa-2. As to the kind of experiment: Cell cycle arrest in MiaPaCa2 cells by accumulation at SubG1 phase at 10 nM after 24 hrs. It counts as functional, Homo sapiens.
In assay [11] the test system is MIA PaCa-2. As to the kind of experiment: Cell cycle arrest in MiaPaCa2 cells by accumulation at G1/G0 phase at 10 nM after 24 hrs. It counts as functional, Homo sapiens.
The test system of assay [12] is MIA PaCa-2. Nature of the assay: Cell cycle arrest at MiaPaCa2 cells by accumulation at G2/M phase at 10 nM after 24 hrs. It counts as functional, Homo sapiens.
Assay [13] deals with MIA PaCa-2. As to the kind of experiment: Cell cycle arrest at MiaPaCa2 cells by accumulation at S phase at 10 nM after 36 hrs. Type of assay: functional, Homo sapiens.
The subject of assay [14] is MIA PaCa-2. As to the kind of experiment: Cell cycle arrest at MiaPaCa2 cells by accumulation at S phase at 10 nM after 48 hrs. Type of assay: functional, Homo sapiens.

As for `OCCN(CCO)Cc1ccccc1`, the IC50 in the assay with MCF7, with MIA PaCa-2 [1], in the assay on HeLa, with NCI-H460 and in the assay on SW-620 was greater than 100 µM throughout.

Take `CC(C)(C)c1cc2c(c(C(C)(C)C)c1)OCCOCCOc1c(cc(C(C)(C)C)cc1C(C)(C)C)OCCOCCO2`: the IC50 with MCF7 was 8 µM; with MIA PaCa-2 [1], 15 µM; in the assay with HeLa it was 10 µM; with NCI-H460, 19 µM; in the assay with SW-620, 19 µM.

In the case of `COC(=O)[C@H](NC(=O)CN1CCOCCOCCN(CC(=O)N[C@@H](C(=O)OC)c2ccccc2)CCOCCOCC1)c1ccccc1`, the IC50 with MCF7 was greater than 100 µM; in the assay with MIA PaCa-2 [1], greater than 100 µM; in the assay with HeLa it was greater than 100 µM; in the assay on NCI-H460, greater than 100 µM; in the assay with SW-620 it was no less than 100 µM.

As to `c1ccc(CNCCOCCOCCNCc2ccccc2)cc1`, the half-inhibitory concentration (IC50) in the assay with MCF7 was greater than 100 µM; in the assay on MIA PaCa-2 [1], greater than 100 µM; in the assay on HeLa, 24 µM; in the assay on NCI-H460, 31 µM; in the assay with SW-620, 39 µM.

As for `c1ccc2c(c1)OCCOCCOCCOc1ccccc1OCCOCCOCCO2`, the IC50 was greater than 100 µM in the assay on MCF7; 32 µM in the assay with MIA PaCa-2 [1]; 21 µM in the assay with HeLa; 24 µM with NCI-H460; 72 µM with SW-620.

On to `O=C(NCC(=O)N1CCOCCOCCN(C(=O)CNC(=O)OCc2ccccc2)CCOCCOCC1)OCc1ccccc1`, for which the IC50 is 44 µM in the assay with MCF7; 71 µM with MIA PaCa-2 [1]; 37 µM with HeLa; greater than 100 µM in the assay with NCI-H460; 40 µM in the assay on SW-620.

As for `C1CCC2OCCOCCOC3CCCCC3OCCOCCOC2C1` (stereo not drawn) [ICOSAHYDRODIBENZO[B,K][1,4,7,10,13,16]HEXAOXACYCLOOCTADECINE], the IC50 in the assay with MCF7 stood at 36 µM; in the assay on MIA PaCa-2 [1], 16 µM; in the assay with HeLa it was 25 µM; with NCI-H460, 16 µM; in the assay with SW-620 it was 7 µM.

On to `CC(C)[C@@H]1NC(=O)[C@H](C)OC(=O)[C@@H](C(C)C)NC(=O)[C@@H](C(C)C)OC(=O)[C@H](C(C)C)NC(=O)[C@H](C)OC(=O)[C@@H](C(C)C)NC(=O)[C@@H](C(C)C)OC(=O)[C@H](C(C)C)NC(=O)[C@H](C)OC(=O)[C@@H](C(C)C)NC(=O)[C@@H](C(C)C)OC1=O` [VALINOMYCIN], for which the Activity in the assay with MIA PaCa-2 [2] worked out at 42%; in the assay with MIA PaCa-2 [3], 24%; with MIA PaCa-2 [4], 63%; with MIA PaCa-2 [5], 49%; with MIA PaCa-2 [6] it was 18%; in the assay with MIA PaCa-2 [7], 23%. The Activity result was “tde” with MIA PaCa-2 [8]; 62% with MIA PaCa-2 [9]; 35% in the assay with MIA PaCa-2 [10]; 60% in the assay with MIA PaCa-2 [11]; 24% in the assay on MIA PaCa-2 [12]; 12% in the assay on MIA PaCa-2 [13]. Besides, in the assay on MIA PaCa-2 [14], the Activity came out at 19%. The half-inhibitory concentration (IC50) was found to be 0.5 µM in the assay with MCF7; 0.001 µM with MIA PaCa-2 [1]; 0.001 µM in the assay on HeLa; 0.001 µM in the assay with NCI-H460; 0.0001 µM with SW-620.

Turning to `c1ccc2c(c1)OCCOCCOc1ccccc1OCCOCCO2`, the IC50 in the assay on MCF7 came out at 49 µM; in the assay on MIA PaCa-2 [1], 28 µM; with HeLa, 17 µM; in the assay on NCI-H460, 28 µM; with SW-620, 17 µM.

As for `CC(C)(C)c1ccc(O)c(O)c1`, the IC50 amounted to 23 µM in the assay with MCF7; 20 µM in the assay on MIA PaCa-2 [1]; 24 µM in the assay with HeLa; 22 µM in the assay on NCI-H460; 22 µM in the assay with SW-620.

For the compound `c1ccc(CN2CCOCCOCCOCCOCC2)cc1`, the IC50 in the assay with MCF7, in the assay on MIA PaCa-2 [1], in the assay on HeLa, in the assay with NCI-H460 and with SW-620 was greater than 100 µM throughout.

For `c1ccc2c(c1)OCCOCCOCCOCCOc1ccccc1OCCOCCOCCOCCO2`, the IC50 in the assay on MCF7 came to 30 µM; with MIA PaCa-2 [1] it was 7 µM; in the assay on HeLa, 11 µM; with NCI-H460, 9 µM; with SW-620 it was 17 µM.

For `CC(C)(C)c1cc(O)c(OCCOCCOc2c(O)cc(C(C)(C)C)cc2C(C)(C)C)c(C(C)(C)C)c1`, the IC50 in the assay on MCF7 came out at 29 µM; in the assay with MIA PaCa-2 [1], 18 µM; with HeLa it was 11 µM; in the assay with NCI-H460, 8 µM; in the assay on SW-620 it was 19 µM.

Regarding `c1ccc(CN2CCOCCOCCN(Cc3ccccc3)CCOCCOCC2)cc1`, the IC50 was 25 µM in the assay on MCF7; 23 µM in the assay with MIA PaCa-2 [1]; 14 µM in the assay with HeLa; 25 µM in the assay on NCI-H460; 6 µM in the assay on SW-620.

For orientation: IC50 means the concentration needed to halve the response being measured. Lower therefore signals inhibition by little substance.
